Data on one molecule can be found in patent US20200323934A1, “PHARMACEUTICAL COMPOSITION AND FOOD” (Sankyo Holdings Co., Ltd., priority 2016, published 2020).

Where only a bound is given, the exact number is not on record here.

The assay concerns CRE-dependent transcription (PKA/ERK/CREB intracellular signaling). Put plainly: luciferase reporter assay of CRE-dependent gene transcription activity in plasmid-transfected PC12 cells. The assay is classed as cell-based, rat. As for the experimental part:
In order to evaluate the gene transcription activity of each sample, the luciferase reporter assay was performed.
The luciferase assay is used to quantitatively analyze the transcription activity of a test material. In order to activate the transcription, various control sequences present in an upstream promoter of a gene are required.
In this embodiment, a plasmid was used in which a CRE sequence which was a control sequence activated by the PKA/ERK/CREB intracellular signaling and was present in an upstream promoter of a memory, and in which learning-related gene and a gene of a luciferase functioning as a luminescent enzyme were connected to each other.
When the test material activates the CRE-dependent transcription, the luciferase gene present at a downstream side is expressed, and the expression thereof is increased, so that a luciferase protein is increased.
PC12 cells (rat adrenal medulla pheochromocytoma derived cell line) were seeded in 96-well culture dish at a seeding density of 4.0×10^4 cells/well. Subsequently, the plasmid was transfected in the PC12 cell, and the cultivation was performed in a medium to which each of the samples was dripped. As the medium, an α-modified Dulbecco's modified Eagle's medium supplemented with 1% serum (DMEM) was used. […]

In the case of `COc1ccc(-c2cc(=O)c3c(OC)c(OC)c(OC)c(OC)c3o2)cc1OC` [Nobiletin, nobiletin], the “concentration at which nobiletin has an enhancing action” value (in combination with Anredera cordifolia, suggested from ponkan's peel extract assumed to contain 1% nobiletin) was at most 2 µg/mL. Besides, the “concentration at which nobiletin expresses the luciferase activity” value (nobiletin solution alone) amounted to 2 µg/mL.
